Laboratory results as given in patent US20160220602A1, “USE OF CHINESE MEDICINE PREPARATION IN PREPARING DRUG FOR PREVENTING AND/OR TREATING CROHN'S DISEASE” (TASLY PHARMACEUTICAL GROUP CO., LTD., priority 2013, published 2016).

Experiments:
Assay type in all cases: in vivo, SD rats
IFN-γ [1] = assay: Serum IFN-γ by ELISA, OXZ model rats; conditions: 100 mg/kg once per day, 11 days
Protocol: (§1) Grouping: the experiment was carried out by using two ways of intracolonic and intragastric administration. […] There were 10 rats each group. Method for establishing rat model: referring to the Heller method, OXZ was used to induce the SD rat Crohn's disease model (abbreviated as “OXZ model”). Neck and back skin of rats were shaved (2 cm×2 cm). Ethanol was used to prepare 5% (w/v) OXZ solution, and 0.3 ml resultant OXZ solution was dripped on the skin of rats. After the solution was air-dried naturally, skin allergy occurred in rats. The sensitized rats were adaptively raised for 5 days, […] anesthetized by intraperitoneal injection of pentobarbital sodium. […] After completion, the rats were inverted by lifting tails for 60s to make the solution totally absorbed. […] If the rats manifested dark hair color, body weight loss, poor appetite, lassitude, watery stool or diarrhea, the model establishment was success. Administration method: after successful model establishment by OXZ, the drug was given to rats. The TCM preparation k saline solutions at corresponding dose were administered to the groups of preparation k of all doses and the […] saline solution, a positive drug, administrated to the positive control group. […] Serum IFN-γ, IL-4, and Gln in intestinal mucosa were determined by ELISA in rats.

IL-1 = assay: Serum IL-1 by ELISA, TNBS model rats; conditions: 100 mg/kg once per day, 21 days
Protocol: (§2) Grouping: experiment was carried out by using two ways of intracolonic and intragastric administrations. […] There were 10 rats each group. Method for establishing rat model: referring to Morris method, TNBS was used to induce the SD rat Crohn's disease model (abbreviated as “TNBS model”). 24 hours before modeling, the SD rats were fasted but water was given. […] The rats of blank control group were normally fed with free access to water and the same volume of normal saline was given in the same administration routes by referring to the dosage regime of aforementioned treatment groups. The rats of model group were administrated with the same volume of normal saline in the same administration routes. […] (2) Serum indices: after final administration, the testing rats were fasted but given water. 24 hours later, blood was gained from abdominal aorta. Serum IFN-γ, IL-1, IL-4, IL-10 and Gln in intestinal mucosa were determined by enzyme-linked immunosorbent assay (ELISA) in rats.

IFN-γ [2] = assay: Serum IFN-γ by ELISA, TNBS model rats; conditions: 100 mg/kg once per day, 21 days
Protocol: as §2

IL-10 = assay: Serum IL-10 by ELISA, TNBS model rats; conditions: 100 mg/kg once per day, 21 days
Protocol: as §2

[3] = system: OXZ-induced SD rat Crohn's disease model; assay: DAI score in oxazolone-caused Crohn's disease rat model; set-up: key: DAI = (weight loss % + stool character + hematochezia scores)/3; conditions: 100 mg/kg
Protocol: Grouping: the experiment was carried out by using two ways of intracolonic and intragastric administration. […] There were 10 rats each group. Method for establishing rat model: referring to the Heller method, OXZ was used to induce the SD rat Crohn's disease model (abbreviated as “OXZ model”). Neck and back skin of rats were shaved (2 cm×2 cm). Ethanol was used to prepare 5% (w/v) OXZ solution, and 0.3 ml resultant OXZ solution was dripped on the skin of rats. […] The sensitized rats were adaptively raised for 5 days, […] anesthetized by intraperitoneal injection of pentobarbital sodium. […] After completion, the rats were inverted by lifting tails for 60s to make the solution totally absorbed. […] If the rats manifested dark hair color, body weight loss, poor appetite, lassitude, watery stool or diarrhea, the model establishment was success. Administration method: after successful model establishment by OXZ, the drug was given to rats. The TCM preparation k saline solutions at corresponding dose were administered to the groups of preparation k of all doses and the […] saline solution, a positive drug, administrated to the positive control group. The rats of blank control group were normally fed, given with water and the same volume of normal saline was given in the same administration routes by referring to the dosage regime of aforesaid treatment groups. The rats of model group were administrated with the same volume of normal saline in the same administration routes. The dose of each group was as follows: […] group at 100 mg/kg rat weight, the TCM preparation k high-dose group at 2.023 g raw medicine/kg rat weight, the middle-dose group at 1.012 g raw medicine/kg rat weight and the low-dose group at 0.506 g raw medicine/kg rat weight. […] (1) General Indices: weight change and stool (e.g. stool occult blood, bloody stool and diarrhea) were observed every day to calculate DAI score. DAI score=(weight loss percentage+defecate character fraction+hematochezia fraction)/3 [table]

IL-4 [4] = assay: Serum IL-4 by ELISA, OXZ model rats; conditions: 100 mg/kg once per day, 11 days
Protocol: as §1

IL-4 [5] = assay: Serum IL-4 by ELISA, TNBS model rats; conditions: 100 mg/kg once per day, 21 days
Protocol: as §2

SMILES: Nc1ccc(O)c(C(=O)O)c1 [mesalamine, Mesalamine]
- IFN-γ serum content (Mean ± SD) (IFN-γ [1]; intracolonic): 85.85 ± 10.66 pg/mL
- IFN-γ serum content (Mean ± SD) (IFN-γ [1]; intragastric): 81.88 ± 18.00 pg/mL
- IL-1 serum content (Mean ± SD) (IL-1; intracolonic): 167.66 ± 26.95 pg/mL
- IL-1 serum content (Mean ± SD) (IL-1; intragastric): 154.59 ± 39.98 pg/mL
- IFN-γ serum content (Mean ± SD) (IFN-γ [2]; intracolonic): 84.51 ± 19.65 pg/mL
- IFN-γ serum content (Mean ± SD) (IFN-γ [2]; intragastric): 93.88 ± 23.67 pg/mL
- IL-10 serum content (Mean ± SD) (IL-10; intracolonic): 88.06 ± 10.47 pg/mL
- IL-10 serum content (Mean ± SD) (IL-10; intragastric): 88.56 ± 16.77 pg/mL
- DAI score (Mean ± SD) ([3]; Table 14: OXZ model rats, intracolonic, 1st day): 0.267 ± 0.263
- DAI score (Mean ± SD) ([3]; Table 14: OXZ model rats, intracolonic, 2nd day): 0.400 ± 0.378
- DAI score (Mean ± SD) ([3]; Table 14: OXZ model rats, intracolonic, 3rd day): 0.300 ± 0.331
- DAI score (Mean ± SD) ([3]; Table 14: OXZ model rats, intracolonic, 4th day): 0.333 ± 0.385
- DAI score (Mean ± SD) ([3]; Table 14: OXZ model rats, intracolonic, 5th day): 0.800 ± 0.422
- DAI score (Mean ± SD) ([3]; Table 14: OXZ model rats, intracolonic, 7th day): 1.700 ± 0.637
- DAI score (Mean ± SD) ([3]; Table 14: OXZ model rats, intracolonic, 8th day): 1.500 ± 0.593
- DAI score (Mean ± SD) ([3]; Table 14: OXZ model rats, intracolonic, 9th day): 0.733 ± 0.439
- DAI score (Mean ± SD) ([3]; Table 15, as titled: intracolonic, TNBS model rats, 1st day): 0.600 ± 0.141
- DAI score (Mean ± SD) ([3]; Table 15, as titled: intracolonic, TNBS model rats, 4th day): 0.267 ± 0.211
- DAI score (Mean ± SD) ([3]; Table 15, as titled: intracolonic, TNBS model rats, 5th day): 1.000 ± 0.222
- DAI score (Mean ± SD) ([3]; Table 15, as titled: intracolonic, TNBS model rats, 8th day): 1.967 ± 0.576
- DAI score (Mean ± SD) ([3]; Table 15, as titled: intracolonic, TNBS model rats, 9th day): 1.633 ± 0.429
- DAI score (Mean ± SD) ([3]; Table 15, as titled: intracolonic, TNBS model rats, 10th day): 1.267 ± 0.625
- DAI score (Mean ± SD) ([3]; Table 15, as titled: intracolonic, TNBS model rats, 11th day): 1.067 ± 0.798
- IL-4 serum content (Mean ± SD) (IL-4 [4]; intracolonic): 86.63 ± 11.20 pg/mL
- IL-4 serum content (Mean ± SD) (IL-4 [4]; intragastric): 86.86 ± 7.84 pg/mL
- IL-4 serum content (Mean ± SD) (IL-4 [5]; intracolonic): 96.80 ± 27.51 pg/mL
- IL-4 serum content (Mean ± SD) (IL-4 [5]; intragastric): 75.80 ± 17.47 pg/mL
